We go through 19 compounds from PubChem BioAssay AID488786 (NMMLSC, 2010).

The source made the active and inactive calls.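 Rule for the calls: active = compounds whose fitted off-rate of the fluorescent probe exceeds 0.05 per second; inactive = the rest.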

The assay deals with Integrin alpha-4 (Homo sapiens) (UniProt P13612). In words: LDV-FITC off-rate from VLA-4, SAR follow-up, mechanism study for VLA-4 allosteric modulator project, U937 cells, flow cytometry (AID 488786). The following applies: for outcome: LDV-FITC dissociation rate; for dissociation rate: at 100 µM, active compounds read high. For orientation: In flow cytometry, cells or beads pass a laser one at a time.
Chain of Integrin alpha-4 (Homo sapiens) (P13612 whole entry, looked up): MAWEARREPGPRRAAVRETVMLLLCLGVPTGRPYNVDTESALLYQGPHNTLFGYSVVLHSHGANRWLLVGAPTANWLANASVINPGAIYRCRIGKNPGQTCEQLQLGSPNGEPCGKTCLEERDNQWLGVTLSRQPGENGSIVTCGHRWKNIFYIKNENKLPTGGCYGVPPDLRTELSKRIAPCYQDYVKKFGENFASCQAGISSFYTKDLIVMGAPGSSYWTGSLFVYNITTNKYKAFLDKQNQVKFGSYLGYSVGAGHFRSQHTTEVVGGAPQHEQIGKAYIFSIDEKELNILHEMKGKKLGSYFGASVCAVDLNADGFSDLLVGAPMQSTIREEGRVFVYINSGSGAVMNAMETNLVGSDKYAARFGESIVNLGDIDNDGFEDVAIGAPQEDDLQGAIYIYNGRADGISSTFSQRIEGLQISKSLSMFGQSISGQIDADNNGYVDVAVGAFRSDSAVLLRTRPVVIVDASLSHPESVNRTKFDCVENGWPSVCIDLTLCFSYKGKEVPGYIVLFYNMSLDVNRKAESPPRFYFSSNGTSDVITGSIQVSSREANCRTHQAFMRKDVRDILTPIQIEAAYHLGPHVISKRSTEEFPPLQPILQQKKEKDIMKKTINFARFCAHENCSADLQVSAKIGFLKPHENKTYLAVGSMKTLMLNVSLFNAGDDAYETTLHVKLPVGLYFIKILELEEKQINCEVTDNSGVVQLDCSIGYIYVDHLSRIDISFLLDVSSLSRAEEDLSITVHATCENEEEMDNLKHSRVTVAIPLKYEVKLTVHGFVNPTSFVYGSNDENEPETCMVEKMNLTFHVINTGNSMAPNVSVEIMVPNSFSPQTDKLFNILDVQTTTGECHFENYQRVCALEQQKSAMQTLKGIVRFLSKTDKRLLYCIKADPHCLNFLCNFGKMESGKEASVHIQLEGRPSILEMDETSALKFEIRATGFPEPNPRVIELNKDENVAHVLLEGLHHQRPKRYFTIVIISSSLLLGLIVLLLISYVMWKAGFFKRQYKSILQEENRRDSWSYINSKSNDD

As to `Cc1ccc(NC(=O)c2cc(N3C(=O)CCC3=O)ccc2N2CCOCC2)cc1`, the result was inactive.
Take `CCOCCCNC(=O)/C(C#N)=C/c1ccc(Cl)c([N+](=O)[O-])c1`: the outcome was inactive.
Consider `CN(C)CCOc1ccc(-c2c(-c3ccccc3)sc3ccccc23)cc1`, for which the dissociation rate is 0.06 s⁻¹.
As to `COC(=O)C1CN(C#N)N(c2ccc(Cl)cc2)C12c1ccccc1-c1ccccc12` (centres undefined), the result was inactive.
As to `COc1ccc(-c2sc3ccccc3c2-c2ccc(OCCN(C)C)cc2)cc1`, the dissociation rate is 0.08 s⁻¹.
On the same count and under the same terms, as for `c1ccc2c(-c3ccc(OCCN4CCCC4)cc3)c(-c3ccsc3)sc2c1`, the figure is 0.048 s⁻¹ (inactive).
Turning to `COC(=O)C1OC2(OC1C(=O)OC)c1ccccc1-c1ccccc12` (centres undefined), the outcome was inactive.
Still for that read-out and setting: as for `CCOC(=O)COc1ccccc1/C=C\[N+](=O)[O-]`, the entry is “inactive”.
Regarding `c1ccc(-c2sc3ccccc3c2-c2ccc(OCCN3CCCC3)cc2)cc1`, the dissociation rate was 0.055 s⁻¹.
Turning to `FC(F)Oc1ccc(C2=Nn3c(nnc3-c3ccccc3Cl)SC2)cc1OCC1CC1`, the result was inactive.
For `COc1cccc(-c2sc3ccccc3c2-c2ccc(OCCN3CCCC3)cc2)c1`, the dissociation rate was 0.065 s⁻¹.
`O=C(COc1ccc(/C=N/NC(=O)c2cc3ccccc3o2)cc1Cl)Nc1ccccc1`: the result was inactive.
On the same count and under the same terms, as for `COC(=O)[C@@H]1[C@@H](C(=O)OC)C2(c3ccccc3-c3ccccc32)N(c2ccc(Cl)cc2)N1C#N`, the entry is “inactive”.
Turning to `CC(NC(=O)/C(C#N)=C/c1ccc(Cl)c([N+](=O)[O-])c1)c1ccccc1` (centres undefined), the result was inactive.
Take `COc1cccc(-c2sc3ccccc3c2-c2ccc(OCCN(C)C)cc2)c1`: the dissociation rate is 0.06 s⁻¹.
As for `CCOC(=O)/C(=C\c1ccc(OC(F)F)cc1)C1=Nn2c(nnc2-c2ccc(Cl)cc2)SC1`, the result was inactive.
Same read-out and setting: for `O=C1NC(=O)C2(N1)c1ccccc1-c1ccccc12` the value was “inactive”.
On the same count and under the same terms, as for `Cc1ccc(NC(=O)c2cc(N3C(=O)CCC3=O)ccc2N2CCOCC2)cc1Cl`, the entry is “inactive”.
On to `c1ccc2c(-c3ccc(OCCN4CCCCC4)cc3)c(-c3ccsc3)sc2c1`, for which the dissociation rate is 0.016 s⁻¹ (inactive).
